# Measured values as given in US5631263A, “Use of delta opioid receptor antagonists to treat immunoregulatory disorders” (Minneapolis Medical Research Foundation, priority 1995, dated 1997).
# “Also recorded” adds a separate entry of the source.
# Experiments:
# δ opioid receptor = biological target: T1, δ opioid receptor (Mus musculus, UniProt P32300); test: antagonism of DADLE on MVD preparations (Example 7); format: cell-based
# T1 construct: Both vasa deferentia were dissected out of mice; from tissue; host or cells: mouse vas deferens (isolated, electrically stimulated)
# Procedure: 2. Mouse Vas Deferens (MVD). […] The organ bath was maintained at 37° C.
# (§1) Concentration-response curves were obtained in the absence (control) and the presence of the antagonist are expressed as IC50 values. […] Therefore, a high IC50 ratio represents a correspondingly high degree of antagonism at a particular receptor. […] Therefore, a low Ke represents a correspondingly high degree of binding at a particular receptor.
# μ opioid receptor [1] = biological target: μ opioid receptor (Cavia porcellus, UniProt A0ACM8Q262); test: antagonism of morphine in the GPI (Example 7); format: cell-based, guinea pig; settings: morphine as agonist, read-out: Ke, μ (Table VII)
# Procedure: (§2) 1. Guinea Pig Ileal Longitudinal Muscle (GPI). Ilea from guinea pigs were taken approximately 10 cm from the ileocaecal junction, and a strip of longitudinal muscle with the myenteric plexus attached was prepared by method of Rang et al., Brit. J. Pharmacol., 22, 356 (1964), the disclosure of which is incorporated by reference herein. A 1 cm portion of this strip was then mounted between two platinum electrodes placed in a 10 ml organ bath and connected to an isometric transducer. Contractions were recorded on a polygraph. […] The organ bath was maintained at 36°-37° C. The longitudinal muscle strip was allowed to equilibrate with continuous stimulation for a minimum of 90 min.
# κ opioid receptor [2] = biological target: T2, κ opioid receptor (Cavia porcellus, UniProt P41144); test: antagonism of ethylketazocine in the GPI (Example 7); format: cell-based, guinea pig; settings: ethylketazocine as agonist, read-out: Ke, κ (Table VII)
# T2 construct: a strip of longitudinal muscle with the myenteric plexus attached was prepared; from tissue; host or cells: guinea pig ileum longitudinal muscle with myenteric plexus
# Procedure: as §2
# δ1 opioid receptor = biological target: T3, δ1 opioid receptor (Mus musculus, UniProt P32300); test: antagonism of DPDPE in smooth muscle; format: cell-based; settings: Table VIII, read-out: Smooth Muscle Ke, DPDPE (δ1)
# T3 construct: Both vasa deferentia were dissected out of mice; from tissue; host or cells: smooth muscle preparation, inferred mouse vas deferens
# Excerpt: as §1
# δ1 receptors = biological target: T4, δ1 receptors (Cavia porcellus, UniProt A0A286XTF2); test: binding to guinea pig brain membranes, [3H]DPDPE
# T4 construct: guinea pig brain membranes; from tissue; host or cells: guinea pig brain membranes
# Procedure: (§3) Therefore, a better assessment of the δ subtype selectivity can be obtained from binding of brain membranes and from antagonism studies in mice. The binding of BNTX to guinea pig brain membranes was determined using the general method of L. L. Werling et al., J. Pharmacol. Exp. Ther., 233, 722 (1985), as modified by A. E. Takemori et al., J. Pharmacol. Exp. Ther., 246, 255 (1988). The radio-ligands employed were [^3 H]DPDPE ([D-Pen^2, D-Pen^5 ] enkephalin) for δ1receptors, [^3 H]DSLET([D-Ser^2 -Leus]enkephalin-Thr^6) for δ^2 receptors, [3H]DAMGO for μ receptors and U69593(trans-(±)-3,4-dichloro-N-methyl-N-[2-(lpyrididinyl)cyclohexyl]benzeneacetamide) for κ receptors.
# δ2 receptors = biological target: T5, δ2 receptors (Cavia porcellus, UniProt A0A286XTF2); test: binding to guinea pig brain membranes, [3H]DSLET
# T5 construct: guinea pig brain membranes; from tissue; host or cells: guinea pig brain membranes
# Procedure: as §3
# μ receptors = μ receptors (Cavia porcellus, UniProt A0ACM8Q262); test: binding to guinea pig brain membranes, [3H]DAMGO
# μ opioid receptor [3] = biological target: T6, μ opioid receptor (Mus musculus, UniProt P42866); test: tail flick assay, antagonism of antinociception by μ agonist; format: in vivo, mice; settings: BNTX 6.25 pmol/i.c.v./mouse
# T6 construct: evaluated in mice using the tail flick assay; from tissue; host or cells: living mice (i.c.v. injection)
# Procedure: (§4) The antagonist effect of BNTX on antinociceptin was evaluated in mice using the tail flick assay, in accord with the procedure of F. C. Tulunay et al., J. Pharmacol. Exp. Ther., 243, 91 (1987). At least three groups of ten mice were used to generate dose-response curves. A mouse was regarded as positive for antinociception if the latency to flick its tail was more than the control latency plus 3 S.D. of the mean reaction time of the group. The reaction times were determined at the peak time for antinociception after administration of various agonists. Intracerebroventricular (i.c.v.) injections were made in a volume of 5 μl by the method of T. J. Haley et al., Br. J. Pharmacol., 12, 12 (1957).
# (§5) On Table VIII, the potencies are expressed as ED50 ratios, which represent the ED50 of the standard agonist administered subcutaneously in the presence of BNTX (6.25 pmol/i.c.v./mouse), divided by the ED50 of the standard agonist.
# κ opioid receptor [4] = biological target: T7, κ opioid receptor (Mus musculus, UniProt P33534); test: tail flick assay, antagonism of antinociception by U50488H; format: in vivo, mice; settings: BNTX 6.25 pmol/i.c.v./mouse
# T7 construct: evaluated in mice using the tail flick assay; from tissue; host or cells: living mice (i.c.v. injection)
# Procedure: as §4, §5
# δ2 opioid receptor [5] = biological target: T8, δ2 opioid receptor (Mus musculus, UniProt P32300); test: tail flick assay, antagonism of antinociception by DSLET; format: in vivo, mice; design: evaluated in mice using the tail flick assay; from tissue; host or cells: living mice (i.c.v. injection); settings: BNTX 6.25 pmol/i.c.v./mouse
# Procedure: as §4, §5
# δ2 opioid receptor [6] = biological target: T8, δ2 opioid receptor; test: antagonism of DSLET in smooth muscle; format: cell-based; design: Both vasa deferentia were dissected out of mice; from tissue; host or cells: smooth muscle preparation, inferred mouse vas deferens; settings: Table VIII, read-out: Smooth Muscle Ke, DSLET (δ2)
# Excerpt: as §1
# [7] = test system: splenic mononuclear cells (MNC); test: depressed AMLR of splenic MNC from rats infected with rat coronavirus; format: cell-based; settings: FIG. 2
# Procedure: Rats were anesthetized with a mixture of 8 mg/ml keta/nine and 2 mg/ml acepromazine (dose=0.1 ml/100 g body weight) and the spleens were removed aseptically. The animals were exsanguinated while under anesthesia. Splenic MNC were released from the surrounding connective tissue by dispersing through a wire mesh. The red blood cells were removed by density gradient centrifugation on ficol-hypaque (Lymphocyte Separation Medium, LSM, Organon Tecknika, Durham, N.C.). The purified MNC were washed in Hanks Balanced Salt Solution containing 1% gelatin and 2 mM EDTA and resuspended in RPMI-1640 medium containing 5% Fetal Bovine Serum (FBS), 100 U/ml penicillin, 100 ug/ml streptomycin and 5×10^-5 M 2-mercaptoethanol. In some experiments, TCM™, a defined medium supplement (CELOX, Minneapolis, Minn.), was used instead of FBS.
# Purified MNC were placed in 96-well round bottom plates at 2×10^5cells/well in a total volume of 0.2 ml and incubated for 5 days at 37° C. […] The cells were then harvested onto glass fiber filter paper and counted in a Beckman (Fullerton, Calif.) scintillation counter. The results are calculated as the mean counts per minute of triplicate wells, and are expressed as percent of control (cpm suppressed AMLR/cpm control AMLR). […]
# [8] = test system: splenic MNC (T and non-T cells); test: depressed AMLR of splenic cells from mice infected with mCMV; format: cell-based; settings: for reversal of AMLR suppressed by CMV 10^-4: AMLR suppressed 42%; for reversal of AMLR suppressed by CMV 10^-2: AMLR suppressed 20%
# Procedure: Mice were injected i.p. with serial 10-fold dilutions of a stock mCMV solution. Dilutions of stock virus ranged from 10^-2 to 10^-6. Mice were sacrificed after 10 days of infection. Control mice were injected with saline.
# Splenic MNC from CMV-infected and uninfected mice were purified by density gradient centrifugation on LSM, as described above for the rat splenic MNC. T and non-T cell fractions were separated by nylon wool columns as disclosed by M. H. Julius et al., Eur. J. Immunol., 3, 645 (1973). The T-enriched cells were used as responder cells. The non-T cells were treated with mitomycin-C to stop their proliferation, as described by K. M. Linner et al., Endocrinol., 128, 717 (1991) and used as stimulator cells. Autologous cell cultures were then set up, with equal numbers (2×10^5) of responder T and stimulator non-T cells being cultured in the 96-well microtiter plates. Cells were cultured for 5 days. To some wells, NTI at 10^-10, 10^-12 or 10^-14 M, concentrations determined to be optimal from the rat AMLR studies, was added for the duration of the culture period. ^3 H-thymidine was added to each well for the last 18 hr of incubation, and the cultures were harvested and counted as described above.
# mu opioid receptors [9] = settings: read-out: Ke, M (morphine); GPI, agonist morphine; antagonist 100 or 200 nM, 15 min; cited from earlier work
# delta opioid receptors = settings: 20 mg/kg s.c.; in words; cited from earlier work
# mu opioid receptors [10] = settings: 20 mg/kg s.c.; in words; cited from earlier work
# kappa opioid receptors = settings: 20 mg/kg s.c.; in words; cited from earlier work
# renal allograft = settings: in words; cited from earlier work
# [11] = test system: mixed lymphocyte responses; settings: cited from earlier work
# [12] = test system: allogeneic murine spleen cells; settings: cited from earlier work
# [13] = both in vivo and in vitro; cited from earlier work
# immune function = settings: both in vivo and in vitro; cited from earlier work
# [14] = test system: enkephalin-binding receptor on cells of the immune system; settings: in words; cited from earlier work
# T4 sequence (A0A286XTF2 1-366): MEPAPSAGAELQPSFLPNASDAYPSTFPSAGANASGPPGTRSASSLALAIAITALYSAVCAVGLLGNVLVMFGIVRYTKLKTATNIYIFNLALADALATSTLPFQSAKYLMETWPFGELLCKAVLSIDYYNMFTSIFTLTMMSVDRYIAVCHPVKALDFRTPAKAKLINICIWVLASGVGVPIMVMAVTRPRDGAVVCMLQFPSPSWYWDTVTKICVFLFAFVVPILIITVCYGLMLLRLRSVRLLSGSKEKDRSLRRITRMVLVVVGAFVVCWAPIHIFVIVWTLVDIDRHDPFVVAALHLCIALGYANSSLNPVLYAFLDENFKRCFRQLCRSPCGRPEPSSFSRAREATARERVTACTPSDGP
# T1 sequence (P32300 whole entry): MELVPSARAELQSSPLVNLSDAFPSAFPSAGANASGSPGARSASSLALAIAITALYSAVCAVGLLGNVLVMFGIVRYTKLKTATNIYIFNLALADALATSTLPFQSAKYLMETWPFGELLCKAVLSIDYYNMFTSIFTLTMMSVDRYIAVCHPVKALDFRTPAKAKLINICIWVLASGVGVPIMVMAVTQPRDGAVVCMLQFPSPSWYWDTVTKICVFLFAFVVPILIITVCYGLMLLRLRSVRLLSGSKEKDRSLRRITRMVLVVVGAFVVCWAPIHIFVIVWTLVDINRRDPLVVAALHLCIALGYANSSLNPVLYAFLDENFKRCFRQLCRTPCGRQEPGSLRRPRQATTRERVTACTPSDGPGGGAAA
# T8 sequence (P32300 whole entry): as above
# T7 sequence (P33534 whole entry): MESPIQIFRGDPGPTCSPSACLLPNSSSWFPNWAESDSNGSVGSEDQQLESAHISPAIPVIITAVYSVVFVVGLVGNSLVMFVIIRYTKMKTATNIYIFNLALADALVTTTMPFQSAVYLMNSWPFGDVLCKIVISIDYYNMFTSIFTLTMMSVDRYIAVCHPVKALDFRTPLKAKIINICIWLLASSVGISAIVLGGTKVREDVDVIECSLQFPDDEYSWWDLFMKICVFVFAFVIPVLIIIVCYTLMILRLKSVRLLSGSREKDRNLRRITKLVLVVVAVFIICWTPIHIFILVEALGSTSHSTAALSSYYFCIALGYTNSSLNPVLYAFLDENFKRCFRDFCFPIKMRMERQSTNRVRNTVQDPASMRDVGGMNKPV
# T6 sequence (P42866 whole entry): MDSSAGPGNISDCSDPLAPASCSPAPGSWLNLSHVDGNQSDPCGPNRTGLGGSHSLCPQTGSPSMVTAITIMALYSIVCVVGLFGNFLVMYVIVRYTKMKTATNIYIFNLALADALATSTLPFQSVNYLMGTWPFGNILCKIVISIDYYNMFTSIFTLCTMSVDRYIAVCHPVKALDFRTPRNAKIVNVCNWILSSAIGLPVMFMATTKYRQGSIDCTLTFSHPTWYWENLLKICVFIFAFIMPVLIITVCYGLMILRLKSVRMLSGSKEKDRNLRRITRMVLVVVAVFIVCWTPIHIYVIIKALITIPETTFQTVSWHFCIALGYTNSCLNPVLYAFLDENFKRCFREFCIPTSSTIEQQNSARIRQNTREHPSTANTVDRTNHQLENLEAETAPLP
# Chain of μ opioid receptor (Cavia porcellus, UniProt A0ACM8Q262) (A0ACM8Q262 1-400): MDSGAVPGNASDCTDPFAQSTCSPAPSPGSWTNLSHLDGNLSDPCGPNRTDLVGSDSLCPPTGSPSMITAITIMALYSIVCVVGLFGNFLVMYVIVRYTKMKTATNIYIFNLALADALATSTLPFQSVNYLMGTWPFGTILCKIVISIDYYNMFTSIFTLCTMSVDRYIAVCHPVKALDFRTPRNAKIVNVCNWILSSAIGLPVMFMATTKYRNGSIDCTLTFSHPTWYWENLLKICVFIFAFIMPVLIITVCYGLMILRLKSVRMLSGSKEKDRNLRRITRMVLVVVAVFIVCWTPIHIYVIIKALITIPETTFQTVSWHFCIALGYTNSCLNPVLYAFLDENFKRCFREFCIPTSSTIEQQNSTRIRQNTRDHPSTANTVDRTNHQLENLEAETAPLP
# Chain of μ receptors (A0ACM8Q262 1-400): as above
# T2 sequence (P41144 whole entry): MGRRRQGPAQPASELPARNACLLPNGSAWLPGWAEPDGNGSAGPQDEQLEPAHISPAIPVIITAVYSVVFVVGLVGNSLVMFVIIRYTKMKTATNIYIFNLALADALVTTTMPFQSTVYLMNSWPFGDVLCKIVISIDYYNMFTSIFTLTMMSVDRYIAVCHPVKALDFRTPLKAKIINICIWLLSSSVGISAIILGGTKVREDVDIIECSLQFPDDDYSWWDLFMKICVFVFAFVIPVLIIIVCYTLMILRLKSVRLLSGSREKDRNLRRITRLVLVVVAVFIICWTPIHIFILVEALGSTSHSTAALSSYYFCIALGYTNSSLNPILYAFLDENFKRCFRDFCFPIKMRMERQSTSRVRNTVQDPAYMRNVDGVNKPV
# T5 sequence (A0A286XTF2 1-366): as the sequence (A0A286XTF2 1-366) above
# T3 sequence (P32300 whole entry): as the sequence (P32300 whole entry) above
smiles,measurement,setting,value
"O=C1C(=Cc2ccccc2)C[C@@]2(O)[C@H]3Cc4ccc(O)c5c4[C@@]2(CCN3CC2CC2)[C@H]1O5 [BNTX, 7-Benzylidene-7-dehydronaltrexone]",Kb,δ opioid receptor,2.9 nM
same,Ke Ratio κ/δ,δ opioid receptor; GPI ethylketazocine / MVD DADLE,35
same,Ke Ratio μ/δ,δ opioid receptor; GPI morphine / MVD DADLE,2.9
same,"Ke ratios compared with NTI and naltrexone, in words",δ opioid receptor; Table VII data,"less than those of the standard δ agonist NTI, but greater than those of naltrexone"
same,receptor selectivity in words,δ opioid receptor; Table VII data,δ-selective antagonist
same,Kb,μ opioid receptor [1],8.3 nM
same,Kb,κ opioid receptor [2],100 nM
same,Kb,δ1 opioid receptor,5.2 nM
same,δ1 selectivity in words,δ1 receptors; binding,highly selective for δ1 receptor sites; also recorded: first δ1 opioid receptor subset-selective antagonist
same,Ki,δ1 receptors; guinea pig brain membranes,0.1 nM
same,"binding ratio, Ki(δ2)/Ki(δ1)",δ1 receptors; guinea pig brain membranes,about 100
same,Ki,δ2 receptors,10.8 nM
same,Ki,μ receptors,13.3 nM
same,"ED50 Ratio (""Potency Ratio""), DAMGO row",μ opioid receptor [3],0.88
same,shift of the morphine dose-response curve,μ opioid receptor [3]; in words,not shifted significantly
same,"ED50 Ratio (""Potency Ratio""), U50488H",κ opioid receptor [4],1.2
same,shift of the U50488H dose-response curve,κ opioid receptor [4]; in words,not shifted significantly
same,"ED50 Ratio (""Potency Ratio""), DSLET",δ2 opioid receptor [5],0.91
same,shift of the DSLET dose-response curve,δ2 opioid receptor [5]; in words,not shifted significantly
same,Kb,δ2 opioid receptor [6],2.1 nM
"Oc1ccc2c3c1O[C@H]1c4[nH]c5ccccc5c4C[C@@]4(O)[C@@H](C2)N(CC2CC2)CC[C@]314 [Compound 1, 17-(cyclopropylmethyl)-6,7-dehydro-3,14β-dihydroxy-4,5α-epoxy-6,7-2',3'-indolmorphinan]",reversal of depressed AMLR,[7],reversed
same,reversal of the suppressed AMLR caused by CMV infection,[8]; FIGS. 4A and 4B,can reverse the suppressed AMLR
same,reversal of AMLR suppressed by CMV 10^-4,[8]; NTI 10^-10 M,partially
same,reversal of AMLR suppressed by CMV 10^-2,[8]; NTI 10^-12 and 10^-10 M,completely reversed
same,reversal of AMLR suppressed by CMV 10^-4,[8]; NTI 10^-14 M-10^-12 M,reversed completely
same,reversal of AMLR suppressed by CMV 10^-2,[8]; NTI 10^-14 M,not by NTI at 10^-14 M
same,Kb,mu opioid receptors [9],29.4 nM
same,block of writhing inhibition due to DSLET,delta opioid receptors,effectively blocked
same,antagonism of the effect of morphine,mu opioid receptors [10],without significantly antagonizing
same,antagonism of the effect of U50488H,kappa opioid receptors,without significantly antagonizing
same,allograft survival,renal allograft,prolong allograft survival
same,effectiveness compared with cyclosporine A (CsA),[11]; in both in vitro responses,less effective than cyclosporine A (CsA)
same,allogeneic and xenogeneic mixed lymphocyte responses,"[11]; in vitro, in words",suppress in vitro allogeneic and xenogeneic mixed lymphocyte responses
same,MLR suppression,[12],strongly suppresses the MLR
same,toxicity,[13],non-toxic
same,immunosuppression,immune function,immunosuppressive
C=CCN1CC[C@]23c4c5ccc(O)c4O[C@H]2C(=O)CC[C@@]3(O)[C@H]1C5 [naloxone],block of many of the effects of enkephalins on immune function,[14],blocked
